Assay results reported in patent publication EP4653000A1, “INHIBITORS OF PSEUDOMONAS AERUGINOSA ELASTASE (LASB) FOR THE TREATMENT OF PSEUDOMONAS KERATITIS” (Helmholtz-Zentrum für Infektionsforschung GmbH, priority 2024, dated 2025).

How the values were obtained:
[1] = Concentration of HIPS-7178 in eye homogenate and serum in the keratitis model (HPLC-MS/MS); format: in vivo, C57BL/6N mice; conditions: topical 5 µL of 1 mg/mL every eight hours along 72h; Figure 2 (a)
Description: Animals. The animal experiments were approved by Saarland University's Animal Welfare Committee (Application number: 17/2021) and conducted in accordance with German and European recommendations and guidelines for the ethical use of animals. The laboratory animals were all C57BL/6N female eight to eleven months old mice. Unlimited access to water and show was secured. Temperature was closely maintained around 22 °C and relative air humidity around 50%. Light and darkness alternated at twelve-hour intervals. All laboratory animals were purchased from Charles River GmbH, Sulzfeld, Germany.
Infection procedure. Anesthesia and infection were performed as previously published. […]
Documentation and Treatment. […] Keratitis severity was visualized using a stereomicroscope (Leitz ELVAR, Wetzlar, Germany) at 16× magnification combined with a high-resolution microscope digital camera (Seben GmbH, Berlin, Germany) and evaluated using a previously described clinical scoring scheme (Lyu et al., 2020). […] The body weight of the mice was measured daily and used as welfare indicator. General condition and behavior were also recorded daily. […]

[2] = system: P. aeruginosa strain PA54; assay: LasB and desmosin levels in eye homogenate in the experimental bacterial keratitis model (LC-MS/MS); format: in vivo, C57BL/6N mice; conditions: for LasB levels in eye homogenate: compared with vehicle (highest levels), p < 0.05, Figure 2 (b)
[3] = system: P. aeruginosa strain PA54; assay: Antibiotic susceptibility / minimum inhibitory concentration (MIC) of strain PA54; format: cell-based, Pseudomonas aeruginosa; conditions: strain PA54, clinical isolate from eye wound swab
Excerpt: Pseudomonas aeruginosa. The P. aeruginosa strain PA54 was employed to induce an experimental bacterial keratitis in the aforementioned C57BL/6N mice. The strain PA54 was isolated from a human infection (wound swab from the eye) and collected at Saarland University Medical Center's Institute for Medical Microbiology and Hygienics (IMMH) in 2009.

Compound | LasB levels in eye homogenate [2] | sensibility of PA54 (multidrug-resistant classification) [3] | further results
CC(=O)c1ccc(NC(=O)[C@@H](NC(=O)C(CC(C)C)P(=O)(O)O)C(C)C)cc1 (some centres unmarked) [HIPS-7178] | reduced levels | – | HIPS-7178 concentrations in eye homogenate and serum [1]: similarly high
gentamicin | – | lacking sensibility | –
CO/N=C(\C(=O)N[C@@H]1C(=O)N2C(C(=O)[O-])=C(C[N+]3(C)CCCC3)CS[C@H]12)c1csc(N)n1 [cefepime] | – | lacking sensibility | –
C[C@@H](O)[C@H]1C(=O)N2C(C(=O)O)=C(S[C@@H]3CN[C@H](C(=O)N(C)C)C3)[C@H](C)[C@H]12 [meropenem] | reduced levels | – | Desmosin levels in eye ([2]; compared with uninfected control, Figure 2 (c)): similarly high levels as uninfected group
CC(C)(O/N=C(\C(=O)N[C@@H]1C(=O)N2C(C(=O)[O-])=C(C[n+]3ccccc3)CS[C@H]12)c1csc(N)n1)C(=O)O [ceftazidime] | – | lacking sensibility | –
C[C@@H]1O[C@@H]1P(=O)(O)O [fosfomycin] | – | lacking sensibility | –
